Source: US20240245694A1, “Tricyclic Compounds and their Uses” (Novartis AG, priority 2022, published 2024)

What was measured:
DLD1-WRN-KO cells = assay: Proliferation assay DLD1-WRN-KO (CellTiterGlo, 96 hours), off-target effects; type: cell-based; settings: Homo sapiens
How it was run: (§1)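 Cells in RPMI-1640/10% FCS were seeded overnight (SW48 2'000, DLD1-WRN-KO 1'500 cells/well), then exposed to eight 3-fold compound dilutions at 0.1% DMSO. ATP luminescence relative to a day-0 plate gives % growth (0% stasis, −100% complete kill). GI50 is the geometric mean of ≥2 independent replicates.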

SW48 cells = assay: Proliferation assay SW48 (CellTiterGlo, 96 hours); type: cell-based; settings: Homo sapiens
How it was run: as §1

[1] = biological target: WRN helicase (core helicase motif aa N517-P1238) (Homo sapiens (Human), UniProt Q14191); assay: WRN ATPase assay (ADP-Glo), DNA dependent ATP hydrolysis; type: biochemical; settings: 3 hours pre-incubation, 300 micromolar ATP, FLAP26 ssDNA; geometric means of at least 2 determinations
How it was run: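 Uses the WRN core helicase (aa N517-P1238) with single-strand 45-mer FLAP26 DNA in Tris pH 7.5, MgCl2, NaCl, BSA and pluronic buffer. Compound was pre-incubated 3 h with enzyme and ATP; reaction then run with 10 nM WRN, 0.2 nM FLAP26 and 300 µM ATP for 30 min at room temperature. ADP quantified by ADP-Glo luminescence; IC50 from duplicate 4-parameter fits, geometric mean of ≥2 runs.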

Chain of WRN helicase (core helicase motif aa N517-P1238) (Q14191 517-1238): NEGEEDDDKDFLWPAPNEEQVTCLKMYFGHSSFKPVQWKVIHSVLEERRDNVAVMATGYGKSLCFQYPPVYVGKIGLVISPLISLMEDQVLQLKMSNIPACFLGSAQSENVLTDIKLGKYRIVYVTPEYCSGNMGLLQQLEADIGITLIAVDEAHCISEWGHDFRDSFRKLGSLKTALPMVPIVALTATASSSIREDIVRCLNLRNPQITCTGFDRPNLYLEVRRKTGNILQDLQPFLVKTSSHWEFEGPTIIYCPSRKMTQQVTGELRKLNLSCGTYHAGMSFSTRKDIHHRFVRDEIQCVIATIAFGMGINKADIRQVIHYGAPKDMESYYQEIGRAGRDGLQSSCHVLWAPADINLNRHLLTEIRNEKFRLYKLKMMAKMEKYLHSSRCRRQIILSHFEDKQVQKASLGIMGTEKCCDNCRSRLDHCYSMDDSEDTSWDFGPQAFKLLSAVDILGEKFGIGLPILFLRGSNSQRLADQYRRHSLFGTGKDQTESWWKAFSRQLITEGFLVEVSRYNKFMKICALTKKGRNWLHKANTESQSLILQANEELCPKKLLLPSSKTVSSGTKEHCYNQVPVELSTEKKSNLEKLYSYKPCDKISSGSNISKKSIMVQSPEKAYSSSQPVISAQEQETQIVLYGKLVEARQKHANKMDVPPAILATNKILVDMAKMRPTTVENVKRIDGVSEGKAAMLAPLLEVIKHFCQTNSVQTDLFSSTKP

GI50 (DLD1-WRN-KO cells)	GI50 (SW48 cells)	IC50 [1]	Structure (SMILES)
> 10000 nM	200 nM	40 nM	Cc1cc(C(F)(F)F)ccc1NC(=O)[C@H]1CCc2c(N3CCN(C(=O)c4nccc(Cl)c4O)CC3)c(=O)n3nc(C4=CCOCC4)nc3n21 [Example 19A, (R)-6-(4-(4-chloro-3-hydroxypicolinoyl)piperazin-1-yl)-2-(3,6-dihydro-2H-pyran-4-yl)-N-(2-methyl-4-(trifluoromethyl)phenyl)-5-oxo-5,7,8,9-tetrahydropyrrolo[1,2-c][1,2,4]triazolo[1,5-a]pyrimidine-9-carboxamide]
> 10000 nM	300 nM	90 nM	Cc1cc(C(F)(F)F)ccc1NC(=O)[C@H]1CCc2c(N3CCN(C(=O)c4ncccc4O)CC3)c(=O)n3nc(C4=CCOCC4)nc3n21 [Example 20A, (R)-2-(3,6-dihydro-2H-pyran-4-yl)-6-(4-(3-hydroxypicolinoyl)piperazin-1-yl)-N-(2-methyl-4-(trifluoromethyl)phenyl)-5-oxo-5,7,8,9-tetrahydropyrrolo[1,2-c][1,2,4]triazolo[1,5-a]pyrimidine-9-carboxamide]
> 10000 nM	> 10000 nM	> 10000 nM	Cc1cc(C(F)(F)F)ccc1NC(=O)[C@@H]1CCc2c(N3CCN(C(=O)c4ncccc4O)CC3)c(=O)n3nc(C4=CCOCC4)nc3n21 [Example 20B, (S)-2-(3,6-dihydro-2H-pyran-4-yl)-6-(4-(3-hydroxypicolinoyl)piperazin-1-yl)-N-(2-methyl-4-(trifluoromethyl)phenyl)-5-oxo-5,7,8,9-tetrahydropyrrolo[1,2-c][1,2,4]triazolo[1,5-a]pyrimidine-9-carboxamide]
> 10000 nM	10 nM	40 nM	Cc1ncnc(C(=O)N2CCN(c3c4n(c5nc(C6=CCOCC6)nn5c3=O)[C@@H](C(=O)Nc3ccc(C(F)(F)F)cc3Cl)C[C@@H]4C)[C@H]3CC[C@@H]32)c1O [Example 21C, (7S,9R)—N-(2-chloro-4-(trifluoromethyl)phenyl)-2-(3,6-dihydro-2H-pyran-4-yl)-6-((1S,6S)-5-(5-hydroxy-6-methylpyrimidine-4-carbonyl)-2,5-diazabicyclo[4.2.0]octan-2-yl)-7-methyl-5-oxo-5,7,8,9-tetrahydropyrrolo[1,2-c][1,2,4]triazolo[1,5-a]pyrimidine-9-carboxamide]

More lines, now with the values behind:

Structure (SMILES)	GI50 (DLD1-WRN-KO cells)	GI50 (SW48 cells)	IC50 [1]
Cc1cc(C(F)(F)F)ccc1NC(=O)[C@@H]1C[C@H](C)c2c(N3CCN(C(=O)c4ncccc4O)CC3)c(=O)n3nc(C4=CCOCC4)nc3n21 [Example 15B, (7S,9S)-2-(3,6-dihydro-2H-pyran-4-yl)-6-(4-(3-hydroxypicolinoyl)piperazin-1-yl)-7-methyl-N-(2-methyl-4-(trifluoromethyl)phenyl)-5-oxo-5,7,8,9-tetrahydropyrrolo[1,2-c][1,2,4]triazolo[1,5-a]pyrimidine-9-carboxamide]	> 10000 nM	8000 nM	18000 nM
Cc1cc(C(F)(F)F)ccc1NC(=O)[C@H]1C[C@H](C)c2c(N3CCN(C(=O)c4ncccc4O)CC3)c(=O)n3nc(C4=CCOCC4)nc3n21 [Example 15C, (7S,9R)-2-(3,6-dihydro-2H-pyran-4-yl)-6-(4-(3-hydroxypicolinoyl)piperazin-1-yl)-7-methyl-N-(2-methyl-4-(trifluoromethyl)phenyl)-5-oxo-5,7,8,9-tetrahydropyrrolo[1,2-c][1,2,4]triazolo[1,5-a]pyrimidine-9-carboxamide]	> 10000 nM	400 nM	100 nM
Cc1cc(C(F)(F)F)ccc1NC(=O)[C@@H]1C[C@@H](C)c2c(N3CCN(C(=O)c4ncccc4O)CC3)c(=O)n3nc(C4=CCOCC4)nc3n21 [Example 15D, (7R,9S)-2-(3,6-dihydro-2H-pyran-4-yl)-6-(4-(3-hydroxypicolinoyl)piperazin-1-yl)-7-methyl-N-(2-methyl-4-(trifluoromethyl)phenyl)-5-oxo-5,7,8,9-tetrahydropyrrolo[1,2-c][1,2,4]triazolo[1,5-a]pyrimidine-9-carboxamide]	> 10000 nM	> 10000 nM	61000 nM
Cc1cc(C(F)(F)F)ccc1NC(=O)[C@H]1C[C@@H](C)c2c(N3CCN(C(=O)c4nccc(F)c4O)CC3)c(=O)n3nc(C4=CCOCC4)nc3n21 [Example 16, (7R,9R)-2-(3,6-dihydro-2H-pyran-4-yl)-6-(4-(4-fluoro-3-hydroxypicolinoyl)piperazin-1-yl)-7-methyl-N-(2-methyl-4-(trifluoromethyl)phenyl)-5-oxo-5,7,8,9-tetrahydropyrrolo[1,2-c][1,2,4]triazolo[1,5-a]pyrimidine-9-carboxamide]	> 10000 nM	10 nM	40 nM
Cc1cc(C(F)(F)F)ccc1NC(=O)[C@H]1C[C@@H](C)c2c(N3CCN(C(=O)c4ncnc(C)c4O)CC3)c(=O)n3nc(C4=CCOCC4)nc3n21 [Example 17, (7R,9R)-2-(3,6-dihydro-2H-pyran-4-yl)-6-(4-(5-hydroxy-6-methylpyrimidine-4-carbonyl)piperazin-1-yl)-7-methyl-N-(2-methyl-4-(trifluoromethyl)phenyl)-5-oxo-5,7,8,9-tetrahydropyrrolo[1,2-c][1,2,4]triazolo[1,5-a]pyrimidine-9-carboxamide]	> 10000 nM	20 nM	60 nM
Cc1ncnc(C(=O)N2CCN(c3c4n(c5nc(C6=CCOCC6)nn5c3=O)[C@H](C(=O)Nc3ccc(C(F)(F)F)cc3Cl)C[C@@H]4C)C[C@H]2C)c1O [Example 18B, (7S,9S)—N-(2-chloro-4-(trifluoromethyl)phenyl)-2-(3,6-dihydro-2H-pyran-4-yl)-6-((R)-4-(5-hydroxy-6-methylpyrimidine-4-carbonyl)-3-methylpiperazin-1-yl)-7-methyl-5-oxo-5,7,8,9-tetrahydropyrrolo[1,2-c][1,2,4]triazolo[1,5-a]pyrimidine-9-carboxamide]	> 10000 nM	> 10000 nM	36000 nM
Cc1ncnc(C(=O)N2CCN(c3c4n(c5nc(C6=CCOCC6)nn5c3=O)[C@H](C(=O)Nc3ccc(C(F)(F)F)cc3Cl)C[C@H]4C)C[C@H]2C)c1O [Example 18C, (7R,9S)—N-(2-chloro-4-(trifluoromethyl)phenyl)-2-(3,6-dihydro-2H-pyran-4-yl)-6-((R)-4-(5-hydroxy-6-methylpyrimidine-4-carbonyl)-3-methylpiperazin-1-yl)-7-methyl-5-oxo-5,7,8,9-tetrahydropyrrolo[1,2-c][1,2,4]triazolo[1,5-a]pyrimidine-9-carboxamide]	> 10000 nM	> 10000 nM	> 10000 nM
Cc1ncnc(C(=O)N2CCN(c3c4n(c5nc(C6=CCOCC6)nn5c3=O)[C@@H](C(=O)Nc3ccc(C(F)(F)F)cc3Cl)C[C@@H]4C)C[C@H]2C)c1O [Example 18D, (7S,9R)—N-(2-chloro-4-(trifluoromethyl)phenyl)-2-(3,6-dihydro-2H-pyran-4-yl)-6-((R)-4-(5-hydroxy-6-methylpyrimidine-4-carbonyl)-3-methylpiperazin-1-yl)-7-methyl-5-oxo-5,7,8,9-tetrahydropyrrolo[1,2-c][1,2,4]triazolo[1,5-a]pyrimidine-9-carboxamide]	> 10000 nM	500 nM	100 nM
